The text below walks through data of PMC10544018 (Journal of Medicinal Chemistry, 2023).

As a reminder, the Kd is a measure of binding affinity in units of concentration. By IC50 is commonly meant the point on the concentration scale where inhibition reaches its midpoint. What is called fraction unbound is the share of the substance not bound to proteins or other matrix. A higher fraction unbound goes with weak binding.

For one data set, the target named is T1, VCB protein (Homo sapiens, UniProt P40337).
T1 construct: A plasmid containing pVHL54–213 with an N-terminal His6 tag; His6 (N, cleaved yes); made in house; host or cells: Escherichia coli BL21 (DE3)
Briefly: Competitive fluorescence polarization (FP) binding assay, displacement of FAM-labeled HIF-1α peptide. The following applies: for Kd: dissociation constant, determined by FP, mean ± S.E.M., back-calculated from IC50; for IC50: mean IC50 values obtained from the FP assay, read-out: IC50 ± S.E.M, FP assay. On the procedure:
Binding of a ligand to the HIF binding site of VHL displaces a fluorescein-labeled, 19-mer HIF-1α oligopeptide, leading to a change in polarization of emitted light upon excitation of the competing fluorescent probe.
All components were dissolved from stock solutions using 100 mM Bis–Tris, 100 mM NaCl, 1 mM DTT, pH 7.0, to yield a final assay volume of 15 μL. DMSO was added as appropriate to ensure a final concentration of 2% (v/v). Control wells containing VCB and JC9 with no compound (zero displacement), or JC9, in the absence of protein (maximum displacement) were also included to allow for normalization. Percentage displacement values were obtained by normalization of controls and were plotted against log[compound]. The IC50 values were determined for each titration using non-linear regression analysis with Prism GraphPad (Table S1). Dissociation constants Kd for the compound–VCB interaction were back-calculated from the measured IC50 values by using a displacement binding model as described.[16],[64]

Data set [1] is described as follows: Log D7.4 measurement by chromatographic method. The format is physicochemical. The following applies: experimental distribution coefficient at pH 7.4; read-out: e log D7.4. As for the experimental part:
(§1) Both were experimentally obtained employing HPLC-based protocols.[39],[40] […] PPB values were determined in view of how they could impact future pharmacokinetic studies of compounds as VHL inhibitors, or once conjugated into bifunctional PROTACs, for which PPB can be a limiting factor.
The determination of the log D7.4 values was performed by a chromatographic method as described previously.[41],[62] […] Subsequently, the mean retention times (n = 2) of the analytes were taken to calculate their log D7.4 values.

Another data set has as its target human serum albumin (Homo sapiens, UniProt P02768). Briefly: PPB studies on HSA HPLC column. The format is in vitro ADME. Particulars: CHIRALPAK HSA HPLC column (human serum albumin); experimentally determined percentage of the compound bound to human serum albumin. As for the experimental part: as §1
PPB was estimated by correlating the logarithmic retention times of the analytes on a […] HSA 50 × 3 mm, 5 μm column with the literature-known % PPB values (converted into log K values) of the following drugs: warfarin, ketoprofen, budesonide, nizatidine, indomethacin, acetylsalicylic acid, carbamazepine, piroxicam, nicardipine, and cimetidine.[63] Samples were dissolved in MeCN/DMSO 9:1 to achieve a final concentration of 0.5 mg/mL. The mobile phase A was 50 mM ammonium acetate adjusted to pH 7.4 with 10% NaOH, while mobile phase B was iPrOH. […] After injecting 3 μL of the sample, a linear gradient from 100% A to 30% iPrOH in 5.4 min was applied. From 5.4 to 18 min, 30% iPrOH was kept, followed by switching back to 100% A in 1.0 min and a re-equilibration time of 6 min.

For `Cc1ncsc1-c1ccc(CNC(=O)[C@@H]2C[C@@H](O)CN2C(=O)[C@@H](NC(=O)C2(C#N)CC2)C(C)(C)C)c(O)c1F` [Compound 20, (2S,4R)-1-((S)-2-(1-Cyanocyclopropane-1-carboxamido)-3,3-dimethylbutanoyl)-N-(3-fluoro-2-hydroxy-4-(4-methylthiazol-5-yl)benzyl)-4-hydroxypyrrolidine-2-carboxamide], at VCB protein, the Kd is 0.141 ± 0.008 µM and the IC50 was determined as 0.727 ± 0.007 µM. Besides, in data set [1], the chromatographic logD turned out to be 1.9. The compound also gave a fraction unbound at 0.5 mg/mL on human serum albumin of 0.11.

On to `Cc1ncsc1-c1ccc(CNC(=O)[C@@H]2C[C@@H](O)CN2C(=O)[C@@H](NC(=O)C2(C#N)CC2)C(C)(C)C)c(F)c1` [Compound 4, (2S,4R)-1-((S)-2-(1-Cyanocyclopropane-1-carboxamido)-3,3-dimethylbutanoyl)-N-(2-fluoro-4-(4-methylthiazol-5-yl)benzyl)-4-hydroxypyrrolidine-2-carboxamide], for which, at VCB protein, the Kd is 0.297 ± 0.034 µM and the IC50 amounted to 1.36 ± 0.056 µM. Moreover, in data set [1], the chromatographic logD was found to be 1.9. The compound also showed a fraction unbound at 0.5 mg/mL on human serum albumin of 0.12.

`Cc1ncsc1-c1ccc(CNC(=O)[C@@H]2C[C@@H](O)CN2C(=O)[C@@H](NC(=O)C2(C#N)CC2)C(C)(C)C)c(C)c1C` [Compound 18, (2S,4R)-1-((S)-2-(1-Cyanocyclopropane-1-carboxamido)-3,3-dimethylbutanoyl)-N-(2,3-dimethyl-4-(4-methylthiazol-5-yl)benzyl)-4-hydroxypyrrolidine-2-carboxamide]: on VCB protein, the Kd is 0.322 ± 0.038 µM and the IC50 was 1.65 ± 0.1 µM. In data set [1], the chromatographic logD came to 2.3. Moreover, the fraction unbound at 0.5 mg/mL on human serum albumin is 0.09.

Regarding `Cc1ncsc1-c1ccc(CNC(=O)[C@@H]2C[C@@H](O)CN2C(=O)[C@@H](NC(=O)C2(C#N)CC2)C(C)(C)C)c(F)c1F` [Compound 19, (2S,4R)-1-((S)-2-(1-Cyanocyclopropane-1-carboxamido)-3,3-dimethylbutanoyl)-N-(2,3-difluoro-4-(4-methylthiazol-5-yl)benzyl)-4-hydroxypyrrolidine-2-carboxamide], on VCB protein, the Kd was 1.45 ± 0.18 µM and the IC50 amounted to 7.45 ± 0.624 µM. Moreover, in data set [1], the chromatographic logD is 2.2. This compound also gave a fraction unbound at 0.5 mg/mL at human serum albumin of 0.11.

In the case of `Cc1ncsc1-c1ccc(CNC(=O)[C@@H]2C[C@@H](O)CN2C(=O)[C@@H](NC(=O)C2(C#N)CC2)C(C)(C)C)c2ccccc12` [Compound 22, (2S,4R)-1-((S)-2-(1-Cyanocyclopropane-1-carboxamido)-3,3-dimethylbutanoyl)-4-hydroxy-N-((4-(4-methylthiazol-5-yl)naphthalen-1-yl)methyl)pyrrolidine-2-carboxamide], at VCB protein, the Kd was 0.397 ± 0.07 µM and the IC50 was found to be 2.02 ± 0.271 µM. Also, in data set [1], the chromatographic logD turned out to be 2.3. Also, at human serum albumin, the fraction unbound at 0.5 mg/mL was 0.07.

As to `Cc1cc(-c2scnc2C)c(C)cc1CNC(=O)[C@@H]1C[C@@H](O)CN1C(=O)[C@@H](NC(=O)C1(C#N)CC1)C(C)(C)C` [Compound 14, (2S,4R)-1-((S)-2-(1-Cyanocyclopropane-1-carboxamido)-3,3-dimethylbutanoyl)-N-(2,5-dimethyl-4-(4-methylthiazol-5-yl)benzyl)-4-hydroxypyrrolidine-2-carboxamide], on VCB protein, the Kd was 0.528 ± 0.016 µM and the IC50 came to 2.74 ± 0.122 µM. In addition, the chromatographic logD in data set [1] is 2.2. The compound also showed a fraction unbound at 0.5 mg/mL on human serum albumin of 0.1.

With `Cc1ncsc1-c1ccc(CNC(=O)[C@@H]2C[C@@H](O)CN2C(=O)[C@@H](NC(=O)C2(C#N)CC2)C(C)(C)C)cc1Cl` [Compound 9, (2S,4R)-N-(3-Chloro-4-(4-methylthiazol-5-yl)benzyl)-1-((S)-2-(1-cyanocyclopropane-1-carboxamido)-3,3-dimethylbutanoyl)-4-hydroxypyrrolidine-2-carboxamide], on VCB protein, the Kd is 0.22 ± 0.011 µM and the IC50 came out at 1.03 ± 0.127 µM. Further, in data set [1], the chromatographic logD stood at 2.1. Moreover, the fraction unbound at 0.5 mg/mL at human serum albumin was determined as 0.09.

For the compound `COc1cc(-c2scnc2C)cc(OC)c1CNC(=O)[C@@H]1C[C@@H](O)CN1C(=O)[C@@H](NC(=O)C1(C#N)CC1)C(C)(C)C` [Compound 11, (2S,4R)-1-((S)-2-(1-Cyanocyclopropane-1-carboxamido)-3,3-dimethylbutanoyl)-N-(2,6-dimethoxy-4-(4-methylthiazol-5-yl)benzyl)-4-hydroxypyrrolidine-2-carboxamide], at VCB protein, the Kd was 6.24 ± 0.62 µM and the IC50 turned out to be 32.1 ± 2.15 µM. In data set [1], the chromatographic logD stood at 2. The same compound gave a fraction unbound at 0.5 mg/mL on human serum albumin of 0.12.

With `Cc1cc(-c2scnc2C)ccc1CNC(=O)[C@@H]1C[C@@H](O)CN1C(=O)[C@@H](NC(=O)C1(C#N)CC1)C(C)(C)C` [Compound 2, (2S,4R)-1-((S)-2-(1-Cyanocyclopropane-1-carboxamido)-3,3-dimethylbutanoyl)-4-hydroxy-N-(2-methyl-4-(4-methylthiazol-5-yl)benzyl)pyrrolidine-2-carboxamide], at VCB protein, the Kd was 0.149 ± 0.028 µM and the IC50 was found to be 0.668 ± 0.033 µM. Also, the chromatographic logD in data set [1] is 2. On human serum albumin, this compound had a fraction unbound at 0.5 mg/mL of 0.1.

Take `Cc1cc(CNC(=O)[C@@H]2C[C@@H](O)CN2C(=O)[C@@H](NC(=O)C2(C#N)CC2)C(C)(C)C)ccc1-c1scnc1C` [Compound 6, (2S,4R)-1-((S)-2-(1-Cyanocyclopropane-1-carboxamido)-3,3-dimethylbutanoyl)-4-hydroxy-N-(3-methyl-4-(4-methylthiazol-5-yl)benzyl)pyrrolidine-2-carboxamide]: at VCB protein, the Kd is 0.496 ± 0.062 µM and the IC50 worked out at 2.26 ± 0.073 µM. Besides, the chromatographic logD in data set [1] was 2. Also, the fraction unbound at 0.5 mg/mL at human serum albumin is 0.11.

With `Cc1ncsc1-c1ccc2c(c1)CC[C@@H]2NC(=O)[C@@H]1C[C@@H](O)CN1C(=O)[C@@H](NC(=O)C1(C#N)CC1)C(C)(C)C` [Compound 34, (2S,4R)-1-((S)-2-(1-Cyanocyclopropane-1-carboxamido)-3,3-dimethylbutanoyl)-4-hydroxy-N-((S)-5-(4-methylthiazol-5-yl)-2,3-dihydro-1H-inden-1-yl)pyrrolidine-2-carboxamide], at VCB protein, the Kd was 3.92 ± 0.42 µM and the IC50 stood at 15.9 ± 0.934 µM. In addition, the chromatographic logD in data set [1] is 2.2. At human serum albumin, this compound showed a fraction unbound at 0.5 mg/mL of 0.1.

With `Cc1ncsc1-c1ccc([C@H](C)NC(=O)[C@@H]2C[C@@H](O)CN2C(=O)[C@@H](NC(=O)C2(C#N)CC2)C(C)(C)C)cc1F` [Compound 25, (2S,4R)-1-((S)-2-(1-Cyanocyclopropane-1-carboxamido)-3,3-dimethylbutanoyl)-N-((S)-1-(3-fluoro-4-(4-methylthiazol-5-yl)phenyl)ethyl)-4-hydroxypyrrolidine-2-carboxamide], on VCB protein, the Kd is 0.186 ± 0.04 µM and the IC50 stood at 0.718 ± 0.095 µM. The chromatographic logD in data set [1] amounted to 2.2. This compound showed a fraction unbound at 0.5 mg/mL on human serum albumin of 0.12.

For the compound `COc1cc(-c2scnc2C)ccc1CNC(=O)[C@@H]1C[C@@H](O)CN1C(=O)[C@@H](NC(=O)C1(C#N)CC1)C(C)(C)C` [Compound 3, (2S,4R)-1-((S)-2-(1-Cyanocyclopropane-1-carboxamido)-3,3-dimethylbutanoyl)-4-hydroxy-N-(2-methoxy-4-(4-methylthiazol-5-yl)benzyl)pyrrolidine-2-carboxamide], on VCB protein, the Kd is 0.183 ± 0.022 µM and the IC50 was found to be 0.837 ± 0.035 µM. The chromatographic logD in data set [1] worked out at 1.9. This compound gave a fraction unbound at 0.5 mg/mL on human serum albumin of 0.12.

Turning to `Cc1ncsc1-c1cc(F)c(CNC(=O)[C@@H]2C[C@@H](O)CN2C(=O)[C@@H](NC(=O)C2(C#N)CC2)C(C)(C)C)cc1F` [Compound 16, (2S,4R)-1-((S)-2-(1-Cyanocyclopropane-1-carboxamido)-3,3-dimethylbutanoyl)-N-(2,5-difluoro-4-(4-methylthiazol-5-yl)benzyl)-4-hydroxypyrrolidine-2-carboxamide], at VCB protein, the Kd is 0.281 ± 0.046 µM and the IC50 came out at 1.44 ± 0.198 µM. Also, in data set [1], the chromatographic logD stood at 2. The compound also showed a fraction unbound at 0.5 mg/mL on human serum albumin of 0.12.
